The structures appear in SMILES notation.

One data set has as its system Mycobacterium abscessus. Briefly: MIC/MBC assays, CLSI method. Format: cell-based. The note with it: Table 14, unit not given.

`OC[C@H]1O[C@@H]2O[C@H]3[C@H](O)[C@@H](O)[C@@H](O[C@H]4[C@H](O)[C@@H](O)[C@@H](O[C@H]5[C@H](O)[C@@H](O)[C@@H](O[C@H]6[C@H](O)[C@@H](O)[C@@H](O[C@H]7[C@H](O)[C@@H](O)[C@@H](O[C@H]8[C@H](O)[C@@H](O)[C@@H](O[C@H]1[C@H](O)[C@H]2O)O[C@@H]8CO)O[C@@H]7CO)O[C@@H]6CO)O[C@@H]5CO)O[C@@H]4CO)O[C@@H]3CO` [0% MTDD/100% β-cyclodextrin, β-cyclodextrin] had an NO-loading (compositions of MTDD (NCT-19-096) and β-cyclodextrin) of 0.0 µmol/mg.

Turning to `C[C@@H]1CCC[C@H](C)N1[N+]([O-])=N[O-].[Na+]` [cis-DMP/NO], the MBC stood at 4 in the data set on Mycobacterium abscessus (M. abscessus N0010, clinical); 4 with Mycobacterium abscessus (M. abscessus N0016, clinical); 4 with Mycobacterium abscessus (M. abscessus N0017, clinical); 4 in the data set with Mycobacterium abscessus (M. abscessus N0018, clinical); 4 against Mycobacterium abscessus (M. abscessus N0019, clinical); 2 with Mycobacterium abscessus (M. abscessus N0020, clinical). For the same molecule, the MBC against Mycobacterium abscessus (M. abscessus N0046) is 4. Besides, the MIC is 1 in the data set with Mycobacterium abscessus (M. abscessus N0010, clinical); 2 against Mycobacterium abscessus (M. abscessus N0016, clinical); 2 in the data set on Mycobacterium abscessus (M. abscessus N0017, clinical); 1 in the data set with Mycobacterium abscessus (M. abscessus N0018, clinical); 2 in the data set with Mycobacterium abscessus (M. abscessus N0019, clinical); 1 with Mycobacterium abscessus (M. abscessus N0020, clinical). In the data set on Mycobacterium abscessus (M. abscessus N0046), this molecule returned an MIC of 2. Also, under “Table 14, unit not given”, the “NO Load” value was 6.9.

(Values after patent US20230337678A1, “NITRIC OXIDE-RELEASING ANTIBACTERIAL COMPOUNDS, FORMULATIONS, AND METHODS PERTAINING THERETO” (KNOW BIO, LLC, priority 2020, published 2023).)
